What all share (format): in vitro ADME
The nature of data set [1]: Liver microsome stability experiment (human). The note with it: for CLint scaled at 1 µM: human, liver microsomes, pH 7.4, Human liver microsomes; for half-life at 1 µM: pH 7.4, Human liver microsomes. The protocol:
(§1) This experiment aimed to evaluate the phase I metabolic stability of the compounds of the present disclosure in liver microsomes of SD rats, beagle dogs, cynomolgus monkeys, and humans.
(§2) • (1) Buffer preparation: 73.21 g of dipotassium hydrogen phosphate trihydrate and 10.78 g of potassium dihydrogen phosphate were dissolved in 4000 mL of ultrapure water. The pH of the solution was adjusted to within 7.40 ± 0.10 using 10% phosphoric acid or 1 M potassium hydroxide, resulting in a final concentration of 100 mM. • (2) Solution preparation and dilution: Stock solutions of the test compounds at a concentration of 10 mM were prepared in dimethyl sulfoxide (DMSO) and stored at 4 °C, and they were diluted into 100 µM working solutions with pure acetonitrile when used. A stock solution of the control compound testosterone at a concentration of 10 mM was prepared in DMSO and stored at -20 °C, and it was diluted into a 400 µM working solution with pure acetonitrile when used. • (3) Termination solution preparation: The termination solution was an acetonitrile solution containing an internal standard (terfenadine). The prepared termination solution was stored in a refrigerator at 2-8 °C. • (4) Liver microsome solution preparation: Liver microsomes from various species (SD rat, beagle dog, cynomolgus monkey, and human) were diluted into 20× working solutions using 100 mM potassium phosphate buffer. The final concentration of the liver microsomes in the reaction system was 0.5 mg/mL. • (5) Reduced nicotinamide adenine dinucleotide phosphate (NADPH) regeneration system preparation: Appropriate amounts of nicotinamide adenine dinucleotide phosphate (NADP), glucose-6-phosphate (G6P), magnesium chloride (MgCl2), and glucose-6-phosphate dehydrogenase (G6PDH) were weighed to prepare stock solutions at concentrations of 65.33 mM, 330 mM, 300 mM, and 250 Units/mL, respectively. The four stock solutions described above were each added to an appropriate amount of buffer, and the mixture was mixed well by gently inverting up and down. The final concentrations of NADP, G6P, MgCl2, and G6PDH in the NADPH regeneration system were 2.65 mM, 10.2 mM, 6.12 mM, and 2.45 Units/mL, respectively. • (6) Incubation process: The incubation was completed in 96-well plates. Several incubation plates were prepared and named T0, T5, T10, T20, T40, T60, and NCF60, respectively. The first 6 plates corresponded to reaction time points of 0 min, 5 min, 10 min, 20 min, 40 min, and 60 min, respectively. The NCF60 plate was incubated for 60 min with potassium phosphate buffer replacing the NADPH regeneration system solution. Samples under all conditions were prepared in triplicate.
(§3) 2 µL of the test compound or control compound and 100 µL of microsome working solution (containing 1 mg/mL liver microsome protein) were added to each of the T0, T5, T10, T20, T40, T60, and NCF60 plates, and only the microsome working solution was added to the Blank 60 plate. The plates described above were then pre-incubated in a 37 °C water bath for about 10 min.
(§4) After the pre-incubation was completed, 98 µL of the NADPH regeneration system working solution was added to each sample well except for the NCF60 plate and the T0 plate to initiate the reaction, and 98 µL of potassium phosphate buffer was added to each well of the NCF60 plate. Therefore, for the sample wells containing the test sample or control substance working solution, the final concentrations of TC and testosterone in the reaction were 1 µM and 4 µM, respectively, the concentration of liver microsomes was 0.5 mg/mL, and the final concentrations of DMSO and acetonitrile in the reaction system were 0.01% (v/v) and 0.99% (v/v), respectively.
(§5) After incubation for an appropriate time (e.g., 5 min, 10 min, 20 min, 40 min, and 60 min), 600 µL of a termination solution (an acetonitrile solution containing 100 ng/mL […]) was added to each test compound sample well and control compound sample well to terminate the reaction. […]
A general note: Liver microsomes are a subcellular fraction often used to study metabolism.

Data set [2] can be described thus: Liver microsome stability experiment (cynomolgus monkey). The note with it: pH 7.4, Cynomolgus monkey liver microsomes, 0.5 mg/mL; for CLint scaled at 1 µM: cynomolgus monkey, liver microsomes. The protocol: as §1, §2, §3, §4, §5
The nature of data set [3]: Liver microsome stability experiment (beagle dog). The note with it: for CLint scaled at 1 µM: beagle, dog, liver microsomes, pH 7.4, Beagle dog liver microsomes; for half-life at 1 µM: pH 7.4, Beagle dog liver microsomes. The protocol:
as §1, §2, §3, §4, §5

Setting [4] is: 0.5 mg/mL, 1 µM, read-out: CL(liver).
Where [5] appears, read: 0.5 mg/mL, 1 µM, read-out: CLint(liver).
The mark [6] stands for this setting: read-out: Clearance rate classification.

In general, half-life refers to how long it takes for the measured level to halve.

On to `O=c1nc(OCc2cc(F)c(Oc3ccnc(C(F)(F)F)c3)c(F)c2)cc2n1C[C@H]1CCN21` [Example 34-R], for which the CLint scaled at 1 µM is less than 5.06 mL/min/kg in data set [1] (setting [4]); less than 6.69 mL/min/kg in data set [1] (setting [5]); no more than 8.9 mL/min/kg in data set [1] (setting [6]); less than 8.2 mL/min/kg in data set [2] (read-out: CL(liver)); less than 10 mL/min/kg in data set [2] (read-out: CLint(liver)); less than 8 mL/min/kg in data set [3] (setting [4]). Further, the CLint scaled at 1 µM in data set [3] (setting [5]) was less than 10.7 mL/min/kg; in data set [3] (setting [6]) it was no more than 13.2 mL/min/kg. Moreover, the half-life at 1 µM in data set [1] (0.5 mg/mL, 1 µM) was greater than 186 min; in data set [2], greater than 186 min; in data set [3] (0.5 mg/mL, 1 µM), greater than 186 min.
Turning to `O=c1nc(OCc2cc(F)c(Oc3ccnc(C(F)(F)F)c3)c(F)c2)cc2n1C[C@H]1CCCN21` [Comparative Example 1, reference compound], the CLint scaled at 1 µM in data set [1] (setting [4]) is 6.9 mL/min/kg; in data set [1] (setting [5]), 10.3 mL/min/kg; in data set [1] (setting [6]) it was 8.9 to 48.3 mL/min/kg; in data set [2] (read-out: CL(liver)), 28.3 mL/min/kg; in data set [2] (read-out: CLint(liver)) it was 81 mL/min/kg; in data set [3] (setting [4]), 10.5 mL/min/kg. The CLint scaled at 1 µM in data set [3] (setting [5]) is 15.8 mL/min/kg; in data set [3] (setting [6]), 13.2 to 72.1 mL/min/kg. Further, the half-life at 1 µM in data set [1] (0.5 mg/mL, 1 µM) was 121 min; in data set [2], 23.1 min; in data set [3] (0.5 mg/mL, 1 µM) it was 126 min.
